Series [1] addresses T1, Kv7.2 (Homo sapiens, UniProt O43526).
T1 construct: expressed in transfected cells; host or cells: CHO cells (ATCC CRL-9618), transient transfection, pcDNA3.1(+)
In words: Whole-cell patch-clamp on CHO cells transiently expressing Kv7.2. The format is cell-based. The conditions noted are these: CHO cells, mean±SEM, >1 activating, <1 inhibiting; for Idrug/Ictl at 0 mV: ratio of ramp-evoked Kv7.2 current amplitude in presence and absence of drug at 0 mV; for Idrug/Ictl at -40 mV: ratio of ramp-evoked Kv7.2 current amplitude in presence and absence of drug at -40 mV. The protocol: According to the experimental protocol, these plasmids were expressed individually or in combination (in particular of Kv7.2 and Kv7.3), together with a plasmid-expressing enhanced green fluorescent protein (Clontech, Palo Alto, CA) used as a transfection marker. Total cDNA in the transfection mixture was kept at 4 µg. CHO cells were grown in 100-mm plastic Petri dishes in Dulbecco's modified Eagle's medium containing 10% fetal bovine serum, nonessential amino acids (0.1 mM), penicillin (50 U/ml), and streptomycin ([…]) in a humidified atmosphere at 37°C with 5% CO2. The cells were plated on glass coverslips coated with poly-L-lysine, and transfected one day after plating with the appropriate cDNA using Lipofectamine 2000 (Life Technologies), according to the manufacturer's protocol.
Currents from CHO cells were recorded at room temperature (20-22°C) 24 hours after trasfection using the whole-cell configuration of the patch-clamp technique, with glass micropipettes of 3-5 MΩ resistance. During the recording, constant perfusion of extracellular solution was maintained. The extracellular solution contained (in mM): 138 NaCl, 2 CaCl2, 5.4 KCl, 1 MgCl2, 10 glucose, and 10 HEPES, at pH 7.4, adjusted with NaOH. The pipette (intracellular) solution contained (in mM): 140 KCl, 2 MgCl2, 10 EGTA, 10 HEPES, 5 Mg^2+-ATP, at pH 7.3-7.4, adjusted with KOH. Currents were recorded using an Axopatch-200A amplifier, filtered at 5 kHz, and digitized using a DigiData 1440A (Molecular Devices). The pCLAMP software (version 10.2, Molecular Devices) was used for data acquisition and analysis. To evaluate the activity of exemplary compounds on Kv7.2 (see Table 1), as well as on Kv7.1, Kv7.2/7.3, Kv7.3 and Kv7.4 channels for selected compounds (see Table 2), the cells were clamped at -80 mV and currents were elicited by 3-s voltage ramps from -80 mV to +20 mV in the presence and absence of each compound. […] The effects of drugs were expressed as shift in the ramp-voltage (ΔV) calculated at 20% of the maximal current (Miceli et al, Proc Natl Acad Sci U S A. 2013, 110(11):4386-91). Curves were fitted using the following equation: y=max/(1+x/EC50)n, where x is the drug concentration, n is the Hill coefficient and max is the maximal value achieved, as previously described (Ambrosino et al, Br J Pharmacol. 2013, 168(6):1430-1444). Data analysis and fit were performed using Sigmaplot (version 12.3).
Ramp-evoked Kv7.2 currents were analyzed by measuring the currents at -40 mV (a membrane potential value close to the activation threshold) and at 0 mV (a membrane potential value at which Kv7.2 conductance is largely saturated). In particular, -40 mV represents the threshold potential for spike initiation and 0 mV represents instead the membrane potential value at which maximal conductance of the channel is achieved.
In Table 1, the effect of exemplary compounds of the invention is expressed as the ratio between current amplitude in the presence (Idrug) and absence (Ictl) of the drug at these two membrane voltages. […]

Series [2] can be described thus: Solution stability (HPLC, extracellular solution, ambient temperature). The class given is physicochemical. The conditions noted are these: percentage of degradation after 6 h at ambient temperature; 100 ppm in extracellular solution pH 7.4. As to the method:
(§1) In order to study the solution stability and photostability of the potassium channel modulators object of the present invention, a stock solution of the proper analyte (1 mg/mL) in dimethylsulfoxide (DMSO) has been prepared. This solution has been then diluted to a concentration of 100 ppm using extracellular solution containing (in mM): 138 NaCl, 2 CaCl2, 5.4 KCl, 1 MgCl2, 10 glucose, and 10 HEPES, at pH 7.4, adjusted with NaOH. To measure solution stability, the diluted solutions have been maintained at ambient temperature for 6 h. To measure photostability, the diluted solutions have been irradiated for 6 h using a Oriel Sol3A Solar Simulator (Newport corporation, Irvine, CA, USA) with a 12x12 inches output beam. Aliquots of solution have been withdrawn after 6h and analyzed by HPLC using a Kinetex C18, 150 mm × 4.6 mm × 2.6 µm (Phenomenex, Bologna, Italy) as stationary phase and a mobile phase constituted by A: H2O/CH3CN (80:20) and B: CH3CN. Gradient elution has been performed from 20% to 90% of B in 7.50 minutes and from 90% to 20% of B in 1 minute. The pump flux has been set to 1.5 mL/min. Column has been thermostatted at 40°C during analysis. Results are espressed in Table 3 as percentage of degradation of the product calculated as ratio between the peak area of the analyte at time 0 (Pa0) and after 6h (Pa6) using the following formula: % degradation = (Pa0−Pa6)/Pa0 *100. [formula]

Series [3] can be described thus: Photostability (HPLC, solar simulator irradiation). The class given is physicochemical. As to conditions: percentage of degradation after 6 h irradiation with solar simulator; 100 ppm in extracellular solution pH 7.4. The protocol:
as §1

The structures appear in SMILES notation.

Regarding `CCCCCCC(=O)Nc1ccc(NCc2ccc(F)cc2)c(F)c1` [N-(3-fluoro-4-((4-fluorobenzyl)amino)phenyl)heptanamide], in series [1], the “Idrug/Ictl at 0 mV” value was 3.30±0.40 and the “Idrug/Ictl at -40 mV” value was determined as 8.85±1.17. Besides, the Solution stability entry in series [2] is “A (degradation lower than 20%)”. Moreover, in series [3], the Photostability result was “A (degradation lower than 20%)”.

Turning to `O=S(=O)(Nc1ccc2c(c1)CCN2Cc1ccc(F)cc1)C1CCCCC1` [N-(1-(4-fluorobenzyl)indolin-5-yl)cyclohexanesulfonamide], the Solution stability entry in series [2] is reported as “C (degradation > 40%)”. The Photostability entry in series [3] is reported as “C (degradation > 40%)”.

On to `COc1ccc(CNc2ccc(NS(=O)(=O)C3CCCCC3)cc2)cc1` [N-(4-((4-methoxybenzyl)amino)phenyl) cyclohexanesulfonamide], for which, in series [2], the Solution stability entry is recorded as “B (20%< degradation<40%)”. Also, the Photostability entry in series [3] was “C (degradation > 40%)”.

Turning to `CCc1cccc(S(=O)(=O)Nc2ccc(NCc3ccc(OC)cc3)cc2)c1` [3-ethyl-N-(4-((4-methoxybenzyl)amino)phenyl)benze nesulfonamide], in series [2], the Solution stability entry is “B (20%< degradation<40%)”. Also, in series [3], the Photostability result is given as “C (degradation > 40%)”.

Consider `O=S(=O)(Nc1ccc2c(ccn2Cc2ccc(C(F)(F)F)cc2)c1)C1CCCCC1` [N-(1-(4-(trifluoromethyl)benzyl)-1H-indol-5-yl)cyclohexanesulfonamide], for which, in series [1], the “Idrug/Ictl at 0 mV” value came to 1.93±0.19 and the “Idrug/Ictl at -40 mV” value was 2.27±0.49. In addition, in series [2], the Solution stability result was “A (degradation lower than 20%)”. Also, the Photostability entry in series [3] is recorded as “A (degradation lower than 20%)”.

Turning to `Cc1cc2c(c(C)c1NS(=O)(=O)C1CCCCC1)CCN2Cc1ccc(C(F)(F)F)cc1` [N-(4,6-dimethyl-1-(4-(trifluoromethyl)benzyl)indolin-5-yl)cyclohexanesulfonamide], in series [2], the Solution stability entry is recorded as “A (degradation lower than 20%)”. Also, the Photostability entry in series [3] is “B (20%< degradation<40%)”.

Consider `O=C(Cc1ccc(Cl)cc1)n1ccc2cc(NS(=O)(=O)C3CCCCC3)ccc21` [N-(1-(2-(4-chlorophenyl)acetyl)-1H-indol-5-yl) cyclohexanesulfonamide], for which, in series [2], the Solution stability entry is “A (degradation lower than 20%)”. The Photostability entry in series [3] was “A (degradation lower than 20%)”.

Consider `COc1ccc(CN(C)c2ccc(NS(=O)(=O)C3CCCCC3)cc2)cc1` [N-(4-((4-methoxybenzyl)(methyl)amino)phenyl) cyclohexanesulfonamide], for which the Solution stability entry in series [2] was “B (20%< degradation<40%)”. In series [3], the Photostability result is “B (20%< degradation<40%)”.

Regarding `O=S(=O)(CC1CCCCC1)Nc1ccc2c(ccn2Cc2ccc(F)cc2)c1` [1-cyclohexyl-N-(1-(4-fluorobenzyl)-1H-indol-5-yl)methanesulfonamide], in series [2], the Solution stability result was “A (degradation lower than 20%)”. The Photostability result in series [3] is recorded as “A (degradation lower than 20%)”.

Turning to `O=S(=O)(Nc1ccc(NCc2ccc(F)cc2)c(F)c1)C1CCCCC1` [N-(3-fluoro-4-((4-fluorobenzyl)amino)phenyl) cyclohexanesulfonamide], in series [1], the “Idrug/Ictl at 0 mV” value turned out to be 0.83±0.10 and the “Idrug/Ictl at -40 mV” value worked out at 0.78±0.15.

Consider `Cc1c(NS(=O)(=O)C2CCCCC2)ccc2c1ccn2Cc1ccc(C(F)(F)F)cc1` [N-(4-methyl-1-(4-(trifluoromethyl)benzyl)-1H-indol-5-yl)cyclohexanesulfonamide], for which, in series [2], the Solution stability entry was “A (degradation lower than 20%)”. For the same compound, the Photostability entry in series [3] is “B (20%< degradation<40%)”.

As for `COc1ccc([C@@H](C)Nc2ccc(NS(=O)(=O)C3CCCCC3)cc2)cc1` [(R)-N-(4-((1-(4-methoxyphenyl)ethyl)amino)phenyl) cyclohexanesulfonamide], in series [2], the Solution stability result was “B (20%< degradation<40%)”. The Photostability entry in series [3] is listed as “C (degradation > 40%)”.

Take `Cc1cc2cc(NS(=O)(=O)C3CCCCC3)ccc2n1Cc1ccc(F)cc1N` [N-(1-(2-amino-4-fluorobenzyl)-2-methyl-1H-indol-5-yl)cyclohexanesulfonamide]: the Solution stability entry in series [2] is recorded as “A (degradation lower than 20%)”. Besides, in series [3], the Photostability entry was “B (20%< degradation<40%)”.

Take `CC(C)(C)CNC(=S)Nc1ccc2c(c1)CCN2Cc1ccc(F)cc1` [1-(1-(4-fluorobenzyl)indolin-5-yl)-3-neopentylthiourea]: in series [2], the Solution stability result is recorded as “A (degradation lower than 20%)”. The Photostability result in series [3] is “B (20%< degradation<40%)”.

In the case of `O=C(Cn1ccc2cc(NS(=O)(=O)CC3CCCCC3)ccc21)c1ccc(Br)cc1` [N-(1-(2-(4-bromophenyl)-2-oxoethyl)-1H-indol-5-yl)-1-cyclohexylmethanesulfonamide], the Solution stability entry in series [2] was “A (degradation lower than 20%)”. For the same compound, in series [3], the Photostability result was “B (20%< degradation<40%)”.

With `O=S(=O)(Nc1ccc2c(ccn2Cc2ccc(C(F)(F)F)cc2O)c1)C1CCCCC1` [N-(1-(2-hydroxy-4-(trifluoromethyl)benzyl)-1H-indol-5-yl)cyclohexanesulfonamide], the Solution stability entry in series [2] is listed as “A (degradation lower than 20%)”. In addition, in series [3], the Photostability result is “A (degradation lower than 20%)”.

For the compound `COc1ccc([C@H](C)Nc2ccc(NS(=O)(=O)C3CCCCC3)cc2)cc1` [(S)-N-(4-((1-(4-methoxyphenyl)ethyl)amino)phenyl) cyclohexanesulfonamide], in series [2], the Solution stability result is “B (20%< degradation<40%)”. In addition, the Photostability entry in series [3] is reported as “C (degradation > 40%)”.

On to `O=S(=O)(Nc1cc(F)c2c(c1)CCN2Cc1ccc(C(F)(F)F)cc1)C1CCCCC1` [N-(7-fluoro-1-(4-(trifluoromethyl)benzyl)indolin-5-yl) cyclohexanesulfonamide], for which the Solution stability entry in series [2] is listed as “B (20%< degradation<40%)”. Besides, in series [3], the Photostability entry is listed as “B (20%< degradation<40%)”.

On to `CCc1cn(Cc2ccc(C(F)(F)F)cc2)c2ccc(NS(=O)(=O)C3CCCCC3)cc12` [N-(3-ethyl-1-(4-(trifluoromethyl)benzyl)-1H-indol-5-yl) cyclohexanesulfonamide], for which the Solution stability result in series [2] is on record as “A (degradation lower than 20%)”. Further, the Photostability entry in series [3] is on record as “A (degradation lower than 20%)”.

Turning to `O=S(=O)(Nc1cc(F)c2c(ccn2Cc2ccc(C(F)(F)F)cc2)c1)C1CCCCC1` [N-(7-fluoro-1-(4-(trifluoromethyl)benzyl)-1H-indol-5-yl) cyclohexanesulfonamide], the Solution stability entry in series [2] was “A (degradation lower than 20%)”. The Photostability entry in series [3] is reported as “A (degradation lower than 20%)”.
